Each block holds one molecule with its values, some of them ahead of it.
What was measured:
[1] = AUClast in Sprague-Dawley rat at 2 mg/kg, po and 1 mg/kg, iv; format: ADME, organism-based; conditions: in vivo
[2] = Cmax in Sprague-Dawley rat at 2 mg/kg, po and 1 mg/kg, iv; format: ADME, organism-based; conditions: in vivo
cells = conditions: Homo sapiens, OVCAR-3, 96 h
Description: Antiproliferative activity against KIF18A siRNA sensitive human OVCAR-3 cells assessed as decrease in nuclei number measured after 4 days incubation by Hoechst 33342 DNA dye based nuclear count assay (NCA)

[3] = Oral bioavailability in Sprague-Dawley rat at 2 mg/kg; format: ADME, organism-based; conditions: in vivo
[4] = Half life in Sprague-Dawley rat at 2 mg/kg, po and 1 mg/kg, iv; format: ADME, organism-based; conditions: in vivo
[5] = target: T1, Kinesin-like protein KIF18A (Homo sapiens, UniProt Q8NI77); test: Inhibition of human recombinant KIF18A (1 to 436) by ADP-Glo motor assay
T1 sequence (Q8NI77 whole entry): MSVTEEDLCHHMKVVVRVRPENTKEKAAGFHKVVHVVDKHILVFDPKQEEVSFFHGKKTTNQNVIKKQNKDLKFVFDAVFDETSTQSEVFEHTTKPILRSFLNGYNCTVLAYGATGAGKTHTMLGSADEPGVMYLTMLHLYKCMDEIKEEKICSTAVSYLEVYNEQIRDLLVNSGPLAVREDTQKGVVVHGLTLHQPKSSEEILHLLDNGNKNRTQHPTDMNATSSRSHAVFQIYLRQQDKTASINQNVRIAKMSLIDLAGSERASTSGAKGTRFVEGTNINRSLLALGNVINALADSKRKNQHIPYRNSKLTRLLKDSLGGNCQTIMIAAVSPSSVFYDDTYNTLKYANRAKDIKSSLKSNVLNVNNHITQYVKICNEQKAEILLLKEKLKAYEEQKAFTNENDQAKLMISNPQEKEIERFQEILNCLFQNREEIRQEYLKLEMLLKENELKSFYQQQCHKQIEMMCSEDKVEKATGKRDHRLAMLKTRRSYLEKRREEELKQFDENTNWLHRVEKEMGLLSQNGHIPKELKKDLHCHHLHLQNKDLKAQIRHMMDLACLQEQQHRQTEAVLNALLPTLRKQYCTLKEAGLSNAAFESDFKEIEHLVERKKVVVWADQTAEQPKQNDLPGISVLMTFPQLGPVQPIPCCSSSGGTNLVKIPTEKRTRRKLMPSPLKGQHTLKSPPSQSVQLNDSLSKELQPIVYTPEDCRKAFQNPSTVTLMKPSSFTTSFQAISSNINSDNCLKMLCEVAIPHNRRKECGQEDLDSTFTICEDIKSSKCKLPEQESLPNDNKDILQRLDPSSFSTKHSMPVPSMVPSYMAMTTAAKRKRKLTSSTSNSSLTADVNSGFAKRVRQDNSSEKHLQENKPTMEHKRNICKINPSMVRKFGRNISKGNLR

[6] = target: T2, Kinesin-like protein KIF11 (Homo sapiens, UniProt P52732); test: Inhibition of EG5 (unknown origin) assessed as luminescence measured after 135 mins by ADP-Glo motor assay
T2 sequence (P52732 whole entry): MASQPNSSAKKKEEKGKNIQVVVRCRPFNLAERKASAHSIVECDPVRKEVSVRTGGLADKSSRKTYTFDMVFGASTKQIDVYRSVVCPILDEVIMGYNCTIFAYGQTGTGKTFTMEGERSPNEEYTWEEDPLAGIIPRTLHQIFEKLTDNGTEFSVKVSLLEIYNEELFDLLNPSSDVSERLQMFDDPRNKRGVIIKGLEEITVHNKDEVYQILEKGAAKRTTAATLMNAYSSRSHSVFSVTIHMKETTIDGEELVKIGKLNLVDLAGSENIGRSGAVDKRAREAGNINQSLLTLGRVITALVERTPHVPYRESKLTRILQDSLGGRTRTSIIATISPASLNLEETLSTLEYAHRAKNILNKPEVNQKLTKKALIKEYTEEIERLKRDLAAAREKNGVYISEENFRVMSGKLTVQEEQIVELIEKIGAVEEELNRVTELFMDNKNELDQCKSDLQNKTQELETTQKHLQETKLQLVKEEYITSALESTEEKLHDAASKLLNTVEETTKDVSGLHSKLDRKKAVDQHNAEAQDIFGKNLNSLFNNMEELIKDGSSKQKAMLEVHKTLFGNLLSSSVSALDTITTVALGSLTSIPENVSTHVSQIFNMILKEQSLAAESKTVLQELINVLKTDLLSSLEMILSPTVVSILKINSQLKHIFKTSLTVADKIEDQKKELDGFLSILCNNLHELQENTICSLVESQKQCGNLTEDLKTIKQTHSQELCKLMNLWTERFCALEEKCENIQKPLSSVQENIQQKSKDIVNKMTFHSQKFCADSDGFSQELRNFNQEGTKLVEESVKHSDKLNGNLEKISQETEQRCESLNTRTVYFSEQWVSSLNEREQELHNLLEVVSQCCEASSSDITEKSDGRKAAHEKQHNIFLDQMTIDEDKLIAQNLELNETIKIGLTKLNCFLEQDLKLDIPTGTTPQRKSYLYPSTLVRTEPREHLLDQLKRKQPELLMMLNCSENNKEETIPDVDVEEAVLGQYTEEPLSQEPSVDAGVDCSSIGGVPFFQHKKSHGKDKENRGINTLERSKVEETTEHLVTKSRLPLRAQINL

NCI-N87 = test: Antiproliferative activity against human NCI-N87 cells assessed as chemiluminescence measured after 4 days incubation by Celltiter Glo assay; conditions: NCI-N87, 96 h
NUGC-3 = test: Antiproliferative activity against human NUGC-3 cells assessed as chemiluminescence measured after 4 days incubation by Celltiter Glo assay; conditions: NUGC-3, 96 h
[7] = AUC in Balb/c mouse at 30 mg/kg, po; format: ADME, organism-based; conditions: in vivo
BXPC-3 = test: Antiproliferative activity against human BxPC-3 cells assessed as chemiluminescence measured after 4 days incubation by Celltiter Glo assay; conditions: BXPC-3, 96 h
[8] = Half life in Balb/c mouse at 30 mg/kg, po; format: ADME, organism-based; conditions: in vivo
[9] = Cmax in Balb/c mouse at 30 mg/kg, po; format: ADME, organism-based; conditions: in vivo
[10] = target: T1, Kinesin-like protein KIF18A; test: Inhibition of human recombinant KIF18A (1 to 374) assessed as luminescence measured after 70 mins by ADP-Glo motor assay

AUC(0-t) [1]: 3400 ng·h/mL
Cmax [2]: 424 ng/mL
EC50 (cells): 40.5 nM
bioavailability [3]: 67.9%
half-life [4]: 4.7 h
SMILES: O=C(Nc1ccc(F)c(N2CCC(F)(F)CC2)n1)c1ccc(NS(=O)(=O)CCO)cc1C1=CCC2(CC1)CC2

EC50 (cells): > 10000 nM
SMILES: Cc1cc(NC(=O)c2ccc(NS(=O)(=O)CCO)cc2NC2CCCCC2)nc(N2CCC(F)(F)CC2)n1

EC50 (cells): 743 nM
SMILES: Cc1cc(NC(=O)c2ccc(NS(=O)(=O)CCO)cc2C2=CCC3(CC2)CC3)nc(N2CC3CC3C2)n1 (configuration not stated)

IC50 [5]: 62 nM
SMILES: C[C@H]1CN(c2cccc(NC(=O)c3ccc(NS(=O)(=O)CCO)cc3N3CCC4(CC3)CC4)n2)CCO1

AUC(0-t) [1]: 1610 ng·h/mL
Cmax [2]: 158 ng/mL
EC50 (cells): 70.8 nM
bioavailability [3]: 69.5%
half-life [4]: 4.2 h
IC50 [6]: > 30000 nM
SMILES: Cc1cc(NC(=O)c2ccc(NS(=O)(=O)CCO)cc2C2=CCC3(CC2)CC3)nc(N2CCC(F)(F)CC2)n1

EC50 (cells): > 10000 nM
SMILES: Cc1cc(NC(=O)c2ccc(NS(=O)(=O)CCO)cc2-c2cnn(C)c2)nc(N2CCC(F)(F)CC2)n1

EC50 (cells): 665 nM
SMILES: Cc1cc(NC(=O)c2ccc(NS(=O)(=O)CCO)cc2N2C3CCCC2CC3)nc(N2CCC(F)(F)CC2)n1

AUC(0-t) [1]: 322 ng·h/mL
Cmax [2]: 140 ng/mL
EC50 (cells): 16.5 nM
bioavailability [3]: 22.9%
half-life [4]: 1.2 h
SMILES: O=C(Nc1cncc(N2CCC(F)(F)CC2)n1)c1ccc(NS(=O)(=O)CCO)cc1C1=CCC2(CC1)CC2

EC50 (cells): 577 nM
SMILES: Cc1cc(NC(=O)c2ccc(NS(=O)(=O)CCO)cc2C2=CCC3(CC2)CC3)nc(N2CCCC2)n1

EC50 (cells): 465 nM
SMILES: Cc1cc(NC(=O)c2ccc(NS(=O)(=O)CCO)cc2N2C3CCC2CC2(CC2)C3)nc(N2CCC(F)(F)CC2)n1

EC50 (cells): 1360 nM
SMILES: Cc1cc(NC(=O)c2ccc(NS(=O)(=O)CCO)cc2C2CCC3(CC2)CC3)nc(N2CCC(F)(F)CC2)n1

AUC(0-t) [1]: 1340 ng·h/mL
Cmax [2]: 285 ng/mL
EC50 (cells): 18.2 nM
bioavailability [3]: 40.4%
half-life [4]: 2.2 h
SMILES: O=C(Nc1cccc(N2CCC(F)(F)CC2)n1)c1ccc(NS(=O)(=O)CCO)cc1C1=CCC2(CC1)CC2

EC50 (cells): 72.7 nM
AUC [7]: 110000 ng·h/mL
IC50 (BXPC-3): 7450 nM
half-life [8]: 7.98 h
Cmax [9]: 7040 ng/mL
SMILES: Cc1cc(NC(=O)c2ccc(NS(=O)(=O)CCO)cc2N2CCC3(CC2)CC3)nc(N2CCC(F)(F)CC2)n1 [AMG-650]
IC50 (NCI-N87): 7490 nM
IC50 (NUGC-3): 111 nM

EC50 (cells): > 10000 nM
SMILES: Cc1cc(NC(=O)c2ccc(NS(=O)(=O)CCO)cc2C2=CCN(C)CC2)nc(N2CCC(F)(F)CC2)n1

EC50 (cells): 186 nM
SMILES: Cc1cc(NC(=O)c2ccc(NS(=O)(=O)CCO)cc2C2=CCC3(CC2)CC3)nc(C2CCC(F)(F)CC2)n1

EC50 (cells): 337 nM
IC50 [10]: Not Active
SMILES: O=C(Nc1cccc(N2CCC(F)(F)CC2)c1)c1ccc(NS(=O)(=O)CCO)cc1C1=CCC2(CC1)CC2

EC50 (cells): 138 nM
SMILES: Cc1cc(NC(=O)c2ccc(NS(=O)(=O)CCO)cc2C2=CCC3(CC2)CC3)nc(N2CC(F)(F)C2)n1

EC50 (cells): 308 nM
IC50 [10]: Not Active
SMILES: Cc1cc(NC(=O)c2ccc(NS(=O)(=O)CCO)cc2C2=CCC3(CC2)CC3)cc(N2CCC(F)(F)CC2)c1

EC50 (cells): 2090 nM
SMILES: Cc1cc(NC(=O)c2ccc(NS(=O)(=O)CCO)cc2N2CC3CC3C2)nc(N2CCC(F)(F)CC2)n1 (configuration not stated)

EC50 (cells): 206 nM
SMILES: O=C(Nc1ccnc(N2CCC(F)(F)CC2)c1F)c1ccc(NS(=O)(=O)CCO)cc1C1=CCC2(CC1)CC2

EC50 (cells): 1630 nM
SMILES: O=C(Nc1ccnc(N2CCC(F)(F)CC2)c1)c1ccc(NS(=O)(=O)CCO)cc1C1=CCC2(CC1)CC2

IC50 [5]: 71 nM
SMILES: Cc1cc(NC(=O)c2ccc(NS(=O)(=O)[C@H](C)CO)cc2N2CCC3(CC2)CC3)nc(N2CCC(F)(F)CC2)n1

From ChEMBL document CHEMBL6071182, “Design, Biological Characterization, and Discovery of Novel Cyclohexenyl Derivatives as Kinesin KIF18A Inhibitors for the Treatment of Ovarian Cancer” (ACS Med Chem Lett, 2024)
